According to PubChem BioAssay (NCI):
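Cells were grown in 96-well plates and exposed to each compound for 48 hours at five concentrations; endpoints were interpolated linearly between bracketing concentrations, or set to the highest concentration if not reached. GI50 = concentration required for 50% inhibition of growth. Definition used: TGI = concentration required for complete inhibition of growth.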

Legend:
Test in all cases: growth of human tumour cells (NCI), 48 h
A549 NSCLC = test system: A549 NSCLC
CAKI-1 renal = test system: CAKI-1 renal
EKVX NSCLC = test system: EKVX NSCLC
HCT-15 colon = test system: HCT-15 colon
MALME-3M melanoma = test system: MALME-3M melanoma
NCI-H23 lung = test system: NCI-H23 lung
RPMI-8226 leukemia = test system: RPMI-8226 leukemia
SNB-19 CNS = test system: SNB-19 CNS
SW-620 colon = test system: SW-620 colon
U251 CNS = test system: U251 CNS

In the case of `C=C(CN(C)C)C(=O)c1ccccc1Cl`, the TGI (A549 NSCLC) is reported as greater than 100 µM, the TGI (CAKI-1 renal) is reported as 30.9 µM and the TGI (EKVX NSCLC) is reported as greater than 76.6 µM. The TGI (HCT-15 colon) was 38.8 µM, the TGI (MALME-3M melanoma) was 31.7 µM and the TGI (NCI-H23 lung) was 54.6 µM. It also gave a TGI (RPMI-8226 leukemia) of 82.3 µM, a TGI (SNB-19 CNS) greater than 100 µM and a TGI (SW-620 colon) of 27.7 µM. It also gave a TGI (U251 CNS) of 98.4 µM.

In the case of `C#C[C@]1(O)[C@@H](CO)O[C@@H](n2ccc(=O)[nH]c2=O)[C@@H]1O`, the TGI (A549 NSCLC) is reported as greater than 100 µM, the TGI (EKVX NSCLC) is reported as greater than 100 µM and the TGI (MALME-3M melanoma) is reported as 7.62 µM. For the same compound, the TGI (NCI-H23 lung) was 7.37 µM, the TGI (RPMI-8226 leukemia) was greater than 100 µM and the TGI (SNB-19 CNS) was greater than 62.1 µM. It also gave a TGI (SW-620 colon) greater than 100 µM and a TGI (U251 CNS) greater than 100 µM.

`CCC1=C(CC2NCCc3cc(OC)c(OC)cc32)CC2c3ccccc3CCN2C1` (stereo not given) showed a TGI (A549 NSCLC) greater than 100 µM, a TGI (CAKI-1 renal) greater than 100 µM and a TGI (EKVX NSCLC) greater than 100 µM. It also gave a TGI (HCT-15 colon) greater than 100 µM, a TGI (MALME-3M melanoma) of 27.7 µM and a TGI (RPMI-8226 leukemia) of 30.4 µM. The TGI (SNB-19 CNS) was greater than 100 µM, the TGI (SW-620 colon) was 37.3 µM and the TGI (U251 CNS) was 27.6 µM.

`Cc1ccc([N+](=O)[O-])cc1S(=O)(=O)Nc1ccc(C2=NN(C(=O)c3ccccc3)C(c3ccccc3O)C2)cc1` (stereo not given) showed a TGI (A549 NSCLC) of 74.4 µM, a TGI (CAKI-1 renal) of 91.9 µM and a TGI (EKVX NSCLC) of 31 µM. For the same compound, the TGI (HCT-15 colon) was 33.5 µM, the TGI (MALME-3M melanoma) was 31.5 µM and the TGI (NCI-H23 lung) was 35.5 µM. The TGI (RPMI-8226 leukemia) was greater than 100 µM, the TGI (SNB-19 CNS) was greater than 100 µM and the TGI (SW-620 colon) was greater than 100 µM. It also gave a TGI (U251 CNS) of 80.1 µM.

In the case of `O=C1CNc2cc(N3CCCCC3)ccc2N1`, the TGI (A549 NSCLC) is reported as greater than 100 µM, the TGI (EKVX NSCLC) is reported as 50.9 µM and the TGI (HCT-15 colon) is reported as greater than 100 µM. For the same compound, the TGI (MALME-3M melanoma) was greater than 100 µM, the TGI (NCI-H23 lung) was greater than 100 µM and the TGI (RPMI-8226 leukemia) was greater than 100 µM. It also gave a TGI (SNB-19 CNS) greater than 100 µM, a TGI (SW-620 colon) greater than 100 µM and a TGI (U251 CNS) greater than 100 µM.

Work on `CN(CCc1ccccn1)c1ccc2c(c1)Cc1ccccc1-2` yielded a TGI (A549 NSCLC) greater than 100 µM, a TGI (CAKI-1 renal) greater than 100 µM and a TGI (EKVX NSCLC) of 62 µM. The TGI (HCT-15 colon) was greater than 100 µM, the TGI (MALME-3M melanoma) was 93.7 µM and the TGI (NCI-H23 lung) was greater than 100 µM. It also gave a TGI (RPMI-8226 leukemia) of 84.7 µM, a TGI (SNB-19 CNS) of 58 µM and a TGI (SW-620 colon) greater than 100 µM. It also gave a TGI (U251 CNS) of 22.6 µM.

With `O=C(/C=C/c1ccc(O)c(O)c1)O[C@H]1CCCC[C@@H]1OC(=O)/C=C/c1ccc(O)c(O)c1` the TGI (A549 NSCLC) was greater than 100 µM, the TGI (CAKI-1 renal) was greater than 100 µM and the TGI (EKVX NSCLC) was 53.8 µM. For the same compound, the TGI (HCT-15 colon) was 35.7 µM, the TGI (MALME-3M melanoma) was 32.6 µM and the TGI (NCI-H23 lung) was 33.7 µM. It also gave a TGI (RPMI-8226 leukemia) greater than 100 µM, a TGI (SNB-19 CNS) of 73.8 µM and a TGI (SW-620 colon) of 19.5 µM. The TGI (U251 CNS) was greater than 100 µM.

Compound `O=C(NN1CCCCC1)c1cc2cc(CCl)ccc2oc1=O` has a TGI (A549 NSCLC) of 48.5 µM, a TGI (CAKI-1 renal) of 33.3 µM and a TGI (EKVX NSCLC) of 27.4 µM. The TGI (HCT-15 colon) was 39.9 µM, the TGI (MALME-3M melanoma) was 24.8 µM and the TGI (NCI-H23 lung) was 32.5 µM. It also gave a TGI (RPMI-8226 leukemia) of 59 µM, a TGI (SNB-19 CNS) of 65.2 µM and a TGI (SW-620 colon) of 60.7 µM. The TGI (U251 CNS) was 31.6 µM.

Work on `COc1ccc2c3c([nH]c2c1)[C@H](C=C(C)C)N1C(=O)[C@@H]2CCCN2C(=O)[C@@H]1C3` yielded a TGI (A549 NSCLC) greater than 100 µM, a TGI (CAKI-1 renal) greater than 100 µM and a TGI (EKVX NSCLC) greater than 100 µM. The TGI (HCT-15 colon) was greater than 100 µM, the TGI (MALME-3M melanoma) was greater than 100 µM and the TGI (NCI-H23 lung) was greater than 100 µM. The TGI (RPMI-8226 leukemia) was greater than 100 µM, the TGI (SNB-19 CNS) was greater than 100 µM and the TGI (SW-620 colon) was greater than 100 µM. It also gave a TGI (U251 CNS) greater than 100 µM.

Compound `CS(=O)(=O)Nc1cccc(-c2ccc3ncnc(Nc4cncc(Cl)c4)c3c2)c1` has a GI50 (A549 NSCLC) of 2.5 µM, a TGI (A549 NSCLC) greater than 100 µM and a GI50 (CAKI-1 renal) of 2.57 µM. The TGI (CAKI-1 renal) was greater than 100 µM, the GI50 (MALME-3M melanoma) was 2.34 µM and the TGI (MALME-3M melanoma) was 8.38 µM. For the same compound, the GI50 (NCI-H23 lung) was 2.51 µM, the TGI (NCI-H23 lung) was 16.9 µM and the GI50 (RPMI-8226 leukemia) was 2.14 µM. The TGI (RPMI-8226 leukemia) was 6.77 µM, the GI50 (SNB-19 CNS) was 3.84 µM and the TGI (SNB-19 CNS) was greater than 100 µM. The GI50 (U251 CNS) was 1.64 µM and the TGI (U251 CNS) was 4.18 µM.

Work on `COc1ccc(-n2nnc3c(C#N)c(C)c(-c4ccccc4)n3c2=O)cc1` yielded a TGI (A549 NSCLC) greater than 38.8 µM, a TGI (CAKI-1 renal) greater than 100 µM and a TGI (EKVX NSCLC) greater than 26.1 µM. For the same compound, the TGI (HCT-15 colon) was greater than 100 µM, the TGI (MALME-3M melanoma) was greater than 100 µM and the TGI (NCI-H23 lung) was greater than 100 µM. It also gave a TGI (RPMI-8226 leukemia) greater than 100 µM, a TGI (SNB-19 CNS) greater than 21.6 µM and a TGI (SW-620 colon) greater than 100 µM. The TGI (U251 CNS) was greater than 41.5 µM.
